According to article PMC7586344, “Discovery of Novel pERK1/2- or β-Arrestin-Preferring 5-HT1A Receptor-Biased Agonists: Diversified Therapeutic-like versus Side Effect Profile” (Journal of Medicinal Chemistry, 2020):

Experiments:
HepG2 cells = experiment: Hepatotoxicity, HepG2 cell viability; format: cell-based, human; settings: 72 h incubation
H1 = biological target: T1, H1 (Homo sapiens, UniProt P35367); experiment: Off-target binding screen; settings: 1000 nM, read-out: % Inhibition of Control Specific Binding
T1 construct: Eurofins Pharma Discovery Services (contract assay)

δ (DOR) = biological target: T2, δ (DOR) (Homo sapiens, UniProt P41143); experiment: Off-target binding screen; settings: 1000 nM, read-out: % Inhibition of Control Specific Binding
T2 construct: Eurofins Pharma Discovery Services (contract assay)

α1B = biological target: T3, α1B (Homo sapiens, UniProt P35368); experiment: Off-target binding screen; settings: read-out: % Inhibition of Control Specific Binding; for inhibition at 1 µM: 1000 nM; for inhibition at 0.01 µM: 10 nM; for inhibition at 0.1 µM: 100 nM
T3 construct: Eurofins Pharma Discovery Services (contract screen)
T3 sequence (P35368 1-520): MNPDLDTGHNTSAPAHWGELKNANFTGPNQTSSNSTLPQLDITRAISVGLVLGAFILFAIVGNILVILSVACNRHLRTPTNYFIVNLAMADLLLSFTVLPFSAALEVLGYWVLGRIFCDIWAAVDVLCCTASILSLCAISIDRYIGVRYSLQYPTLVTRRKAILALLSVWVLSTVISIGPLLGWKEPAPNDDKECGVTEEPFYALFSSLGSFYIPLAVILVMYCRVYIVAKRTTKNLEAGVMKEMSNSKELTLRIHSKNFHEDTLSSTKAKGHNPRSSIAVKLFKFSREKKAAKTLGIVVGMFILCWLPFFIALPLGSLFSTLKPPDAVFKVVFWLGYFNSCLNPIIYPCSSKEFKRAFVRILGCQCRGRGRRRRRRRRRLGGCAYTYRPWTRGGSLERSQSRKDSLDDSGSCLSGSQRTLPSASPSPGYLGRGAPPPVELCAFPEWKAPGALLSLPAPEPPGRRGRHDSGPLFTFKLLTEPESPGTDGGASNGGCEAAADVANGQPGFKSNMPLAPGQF

5-HT1D = biological target: T4, 5-HT1D (Homo sapiens, UniProt P28221); experiment: Off-target binding screen; settings: read-out: % Inhibition of Control Specific Binding; for inhibition at 1 µM: 1000 nM
T4 construct: Eurofins Pharma Discovery Services (contract screen)

5-HT2A = biological target: T5, 5-HT2A (Homo sapiens, UniProt P28223); experiment: Off-target binding screen; settings: 1000 nM, read-out: % Inhibition of Control Specific Binding
T5 construct: Eurofins Pharma Discovery Services (contract screen)

NET = biological target: T6, NET (Homo sapiens, UniProt P23975); experiment: Off-target binding screen; settings: 1000 nM, read-out: % Inhibition of Control Specific Binding
T6 construct: Eurofins Pharma Discovery Services

5-HT2B = biological target: T7, 5-HT2B (Homo sapiens, UniProt P41595); experiment: Off-target binding screen; settings: 1000 nM, read-out: % Inhibition of Control Specific Binding
T7 construct: Eurofins Pharma Discovery Services (contract screen)

H2 = biological target: T8, H2 (Homo sapiens, UniProt P25021); experiment: Off-target binding screen; settings: 1000 nM, read-out: % Inhibition of Control Specific Binding
T8 construct: Eurofins Pharma Discovery Services (contract assay)

κ (KOR) = biological target: T9, κ (KOR) (Homo sapiens, UniProt P41145); experiment: Off-target binding screen; settings: 1000 nM, read-out: % Inhibition of Control Specific Binding
T9 construct: Eurofins Pharma Discovery Services (contract assay)

α2B = biological target: T10, α2B (Homo sapiens, UniProt P18089); experiment: Off-target binding screen; settings: read-out: % Inhibition of Control Specific Binding; for inhibition at 0.01 µM: 10 nM; for inhibition at 0.1 µM: 100 nM; for inhibition at 1 µM: 1000 nM
T10 construct: Eurofins Pharma Discovery Services (contract screen)
T10 sequence (P18089 1-450): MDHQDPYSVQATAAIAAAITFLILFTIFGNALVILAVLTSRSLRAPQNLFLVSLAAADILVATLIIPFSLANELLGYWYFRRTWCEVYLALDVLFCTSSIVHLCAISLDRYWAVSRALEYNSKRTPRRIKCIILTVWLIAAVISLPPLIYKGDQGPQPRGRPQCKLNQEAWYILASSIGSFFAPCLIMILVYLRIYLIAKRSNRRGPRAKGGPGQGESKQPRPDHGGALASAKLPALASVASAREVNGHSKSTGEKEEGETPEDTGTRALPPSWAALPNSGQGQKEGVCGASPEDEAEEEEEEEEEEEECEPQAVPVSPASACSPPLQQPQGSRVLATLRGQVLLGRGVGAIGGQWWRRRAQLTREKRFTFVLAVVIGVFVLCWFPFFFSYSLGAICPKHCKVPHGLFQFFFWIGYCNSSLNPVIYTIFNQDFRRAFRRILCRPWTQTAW

α2A = biological target: T11, α2A (Homo sapiens, UniProt P08913); experiment: Off-target binding screen; settings: read-out: % Inhibition of Control Specific Binding; for inhibition at 0.01 µM: 10 nM; for inhibition at 0.1 µM: 100 nM; for inhibition at 1 µM: 1000 nM
T11 construct: Eurofins Pharma Discovery Services (contract screen)
T11 sequence (P08913 1-465): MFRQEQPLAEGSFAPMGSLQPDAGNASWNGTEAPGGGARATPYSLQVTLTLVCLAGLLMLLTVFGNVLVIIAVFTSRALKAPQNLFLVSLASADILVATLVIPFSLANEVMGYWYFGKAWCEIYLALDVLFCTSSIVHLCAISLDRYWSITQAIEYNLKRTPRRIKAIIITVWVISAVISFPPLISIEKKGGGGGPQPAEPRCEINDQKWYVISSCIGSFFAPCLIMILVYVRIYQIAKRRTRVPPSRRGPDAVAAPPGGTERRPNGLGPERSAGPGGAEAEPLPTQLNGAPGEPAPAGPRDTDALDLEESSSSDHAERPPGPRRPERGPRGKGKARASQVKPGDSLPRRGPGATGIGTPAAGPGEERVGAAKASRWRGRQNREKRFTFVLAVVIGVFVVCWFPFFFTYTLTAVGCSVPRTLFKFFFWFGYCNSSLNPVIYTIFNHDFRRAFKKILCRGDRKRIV

D1 = biological target: T12, D1 (Homo sapiens, UniProt P21728); experiment: Off-target binding screen; settings: read-out: % Inhibition of Control Specific Binding; for inhibition at 1 µM: 1000 nM
T12 construct: Eurofins Pharma Discovery Services (contract assay)

CB2 = biological target: T13, CB2 (Homo sapiens, UniProt P34972); experiment: Off-target binding screen; settings: 1000 nM, read-out: % Inhibition of Control Specific Binding
T13 construct: Eurofins Pharma Discovery Services (contract assay)

β1 = biological target: T14, β1 (Homo sapiens, UniProt P08588); experiment: Off-target binding screen; settings: 1000 nM, read-out: % Inhibition of Control Specific Binding
T14 construct: Eurofins Pharma Discovery Services (contract screen)

BZD (peripheral) = experiment: Off-target binding screen; settings: 1000 nM
M3 = biological target: T15, M3 (Homo sapiens, UniProt P20309); experiment: Off-target binding screen; settings: 1000 nM, read-out: % Inhibition of Control Specific Binding
T15 construct: Eurofins Pharma Discovery Services (contract assay)

5-HT5A = biological target: T16, 5-HT5A (Homo sapiens, UniProt P47898); experiment: Off-target binding screen; settings: read-out: % Inhibition of Control Specific Binding; for inhibition at 1 µM: 1000 nM
T16 construct: Eurofins Pharma Discovery Services (contract screen)

BZDp (TSPO) = biological target: T17, BZDp (TSPO) (Homo sapiens, UniProt P30536); experiment: Off-target binding screen; settings: 1000 nM, read-out: % Inhibition of Control Specific Binding
T17 construct: Eurofins Pharma Discovery Services (contract assay)

µ (MOR) = biological target: T18, µ (MOR) (Homo sapiens, UniProt P35372); experiment: Off-target binding screen; settings: read-out: % Inhibition of Control Specific Binding; for inhibition at 1 µM: 1000 nM
T18 construct: Eurofins Pharma Discovery Services (contract assay)
T18 sequence (P35372 whole entry): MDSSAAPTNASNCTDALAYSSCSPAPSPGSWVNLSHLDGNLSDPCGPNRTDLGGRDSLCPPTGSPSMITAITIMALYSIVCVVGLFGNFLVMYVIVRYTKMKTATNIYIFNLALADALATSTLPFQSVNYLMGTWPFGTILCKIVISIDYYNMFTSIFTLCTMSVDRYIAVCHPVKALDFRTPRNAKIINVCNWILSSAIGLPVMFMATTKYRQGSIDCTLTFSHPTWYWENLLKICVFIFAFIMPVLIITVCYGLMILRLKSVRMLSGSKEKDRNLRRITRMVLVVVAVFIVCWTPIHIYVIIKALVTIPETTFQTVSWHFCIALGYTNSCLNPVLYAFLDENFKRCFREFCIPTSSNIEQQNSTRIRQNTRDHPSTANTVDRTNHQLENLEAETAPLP

T15 sequence (P20309 whole entry): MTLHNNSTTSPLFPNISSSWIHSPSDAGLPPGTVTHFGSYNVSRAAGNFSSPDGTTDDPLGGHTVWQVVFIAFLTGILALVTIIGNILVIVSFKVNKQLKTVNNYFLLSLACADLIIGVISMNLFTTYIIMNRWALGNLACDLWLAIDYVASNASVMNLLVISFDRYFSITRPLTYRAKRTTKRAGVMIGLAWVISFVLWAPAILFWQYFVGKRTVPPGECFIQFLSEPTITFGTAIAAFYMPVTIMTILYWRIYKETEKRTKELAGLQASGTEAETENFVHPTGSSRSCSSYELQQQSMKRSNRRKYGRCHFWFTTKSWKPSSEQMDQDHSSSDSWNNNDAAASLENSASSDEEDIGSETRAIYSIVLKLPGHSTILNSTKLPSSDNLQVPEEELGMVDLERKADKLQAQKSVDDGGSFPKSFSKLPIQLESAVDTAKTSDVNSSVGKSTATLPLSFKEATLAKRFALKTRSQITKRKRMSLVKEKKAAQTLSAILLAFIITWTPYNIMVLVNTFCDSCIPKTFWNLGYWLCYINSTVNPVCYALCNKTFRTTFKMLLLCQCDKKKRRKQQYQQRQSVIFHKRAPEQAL
T12 sequence (P21728 whole entry): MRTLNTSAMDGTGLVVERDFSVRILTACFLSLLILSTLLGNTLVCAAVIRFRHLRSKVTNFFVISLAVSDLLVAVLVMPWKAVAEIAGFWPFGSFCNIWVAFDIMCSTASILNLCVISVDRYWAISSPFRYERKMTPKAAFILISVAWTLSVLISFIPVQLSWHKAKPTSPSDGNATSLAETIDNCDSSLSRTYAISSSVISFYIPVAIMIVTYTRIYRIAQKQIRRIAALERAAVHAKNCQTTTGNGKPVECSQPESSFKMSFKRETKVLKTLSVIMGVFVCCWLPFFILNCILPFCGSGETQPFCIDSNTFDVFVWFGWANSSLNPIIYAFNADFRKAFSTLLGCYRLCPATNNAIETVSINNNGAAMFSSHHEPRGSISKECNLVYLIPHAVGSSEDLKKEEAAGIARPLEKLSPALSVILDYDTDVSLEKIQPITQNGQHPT
T4 sequence (P28221 whole entry, species assumed): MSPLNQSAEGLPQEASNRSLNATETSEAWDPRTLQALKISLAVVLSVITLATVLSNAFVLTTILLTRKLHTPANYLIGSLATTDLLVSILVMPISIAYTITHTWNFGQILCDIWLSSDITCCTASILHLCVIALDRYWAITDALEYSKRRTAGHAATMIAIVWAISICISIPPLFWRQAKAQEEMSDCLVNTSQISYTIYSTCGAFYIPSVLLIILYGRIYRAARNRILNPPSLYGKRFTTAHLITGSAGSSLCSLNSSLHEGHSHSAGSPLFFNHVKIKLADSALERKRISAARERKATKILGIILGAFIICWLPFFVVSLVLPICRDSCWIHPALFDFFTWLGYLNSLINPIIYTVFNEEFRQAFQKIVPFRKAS
T5 sequence (P28223 whole entry): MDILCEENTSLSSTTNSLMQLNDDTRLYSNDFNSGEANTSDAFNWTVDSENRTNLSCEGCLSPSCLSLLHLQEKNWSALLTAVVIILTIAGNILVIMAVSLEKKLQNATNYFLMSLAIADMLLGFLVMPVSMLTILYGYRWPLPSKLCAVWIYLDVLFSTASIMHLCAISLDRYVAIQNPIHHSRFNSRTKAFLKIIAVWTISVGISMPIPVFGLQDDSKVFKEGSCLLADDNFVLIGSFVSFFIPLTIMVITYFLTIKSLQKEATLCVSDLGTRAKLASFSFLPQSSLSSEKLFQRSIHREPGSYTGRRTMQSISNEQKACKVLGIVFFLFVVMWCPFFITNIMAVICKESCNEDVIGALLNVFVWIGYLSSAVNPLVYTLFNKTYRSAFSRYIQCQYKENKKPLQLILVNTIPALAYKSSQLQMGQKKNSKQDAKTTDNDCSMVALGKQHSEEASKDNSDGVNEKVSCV
T17 sequence (P30536 whole entry): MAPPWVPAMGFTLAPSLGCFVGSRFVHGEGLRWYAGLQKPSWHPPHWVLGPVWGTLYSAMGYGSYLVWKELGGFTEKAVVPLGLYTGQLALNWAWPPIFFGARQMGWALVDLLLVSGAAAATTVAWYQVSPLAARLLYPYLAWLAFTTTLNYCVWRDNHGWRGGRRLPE
T8 sequence (P25021 whole entry): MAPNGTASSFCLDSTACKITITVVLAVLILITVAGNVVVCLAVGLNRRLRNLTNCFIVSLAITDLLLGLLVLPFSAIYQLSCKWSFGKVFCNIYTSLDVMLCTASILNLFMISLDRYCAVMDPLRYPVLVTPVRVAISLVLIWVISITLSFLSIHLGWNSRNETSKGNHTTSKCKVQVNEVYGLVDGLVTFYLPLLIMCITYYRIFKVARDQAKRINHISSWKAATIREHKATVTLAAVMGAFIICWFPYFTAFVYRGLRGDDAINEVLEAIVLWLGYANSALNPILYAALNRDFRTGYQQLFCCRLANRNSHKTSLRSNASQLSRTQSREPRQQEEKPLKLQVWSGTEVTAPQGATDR
T13 sequence (P34972 whole entry, species assumed): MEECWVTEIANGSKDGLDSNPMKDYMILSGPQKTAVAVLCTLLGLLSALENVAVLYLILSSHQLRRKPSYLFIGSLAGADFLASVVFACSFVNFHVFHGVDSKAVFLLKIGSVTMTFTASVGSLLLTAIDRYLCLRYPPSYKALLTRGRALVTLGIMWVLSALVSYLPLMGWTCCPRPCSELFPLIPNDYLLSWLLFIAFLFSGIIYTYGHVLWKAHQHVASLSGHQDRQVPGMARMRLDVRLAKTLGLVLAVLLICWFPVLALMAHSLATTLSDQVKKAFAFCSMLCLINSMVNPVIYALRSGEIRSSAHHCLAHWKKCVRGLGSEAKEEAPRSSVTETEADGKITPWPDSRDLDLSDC
T9 sequence (P41145 whole entry): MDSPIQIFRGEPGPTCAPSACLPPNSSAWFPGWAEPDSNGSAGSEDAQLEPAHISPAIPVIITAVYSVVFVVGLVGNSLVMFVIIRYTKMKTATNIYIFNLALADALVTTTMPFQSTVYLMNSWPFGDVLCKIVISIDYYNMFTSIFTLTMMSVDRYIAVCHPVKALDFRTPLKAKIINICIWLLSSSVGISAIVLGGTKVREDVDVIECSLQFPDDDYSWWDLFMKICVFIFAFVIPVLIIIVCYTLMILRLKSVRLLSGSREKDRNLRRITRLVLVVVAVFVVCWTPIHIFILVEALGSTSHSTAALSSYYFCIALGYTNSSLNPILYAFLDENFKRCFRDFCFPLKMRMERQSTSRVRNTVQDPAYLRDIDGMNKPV
T6 sequence (P23975 whole entry): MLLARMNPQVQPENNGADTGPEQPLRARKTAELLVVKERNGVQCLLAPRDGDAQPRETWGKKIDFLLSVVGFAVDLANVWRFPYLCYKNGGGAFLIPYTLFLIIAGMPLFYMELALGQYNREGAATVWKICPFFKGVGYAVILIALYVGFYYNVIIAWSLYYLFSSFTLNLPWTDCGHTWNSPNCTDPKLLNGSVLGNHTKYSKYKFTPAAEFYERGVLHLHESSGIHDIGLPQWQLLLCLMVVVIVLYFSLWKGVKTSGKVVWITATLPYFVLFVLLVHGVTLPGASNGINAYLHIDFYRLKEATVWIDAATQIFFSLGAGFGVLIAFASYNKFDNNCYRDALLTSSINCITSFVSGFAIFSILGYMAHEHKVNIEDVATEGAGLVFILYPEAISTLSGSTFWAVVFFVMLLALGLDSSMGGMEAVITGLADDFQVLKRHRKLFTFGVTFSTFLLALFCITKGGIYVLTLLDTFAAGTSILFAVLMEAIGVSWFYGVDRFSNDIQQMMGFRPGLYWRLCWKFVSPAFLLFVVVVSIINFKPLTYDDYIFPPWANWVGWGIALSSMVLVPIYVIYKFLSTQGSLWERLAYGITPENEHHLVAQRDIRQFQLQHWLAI
T16 sequence (P47898 whole entry, species assumed): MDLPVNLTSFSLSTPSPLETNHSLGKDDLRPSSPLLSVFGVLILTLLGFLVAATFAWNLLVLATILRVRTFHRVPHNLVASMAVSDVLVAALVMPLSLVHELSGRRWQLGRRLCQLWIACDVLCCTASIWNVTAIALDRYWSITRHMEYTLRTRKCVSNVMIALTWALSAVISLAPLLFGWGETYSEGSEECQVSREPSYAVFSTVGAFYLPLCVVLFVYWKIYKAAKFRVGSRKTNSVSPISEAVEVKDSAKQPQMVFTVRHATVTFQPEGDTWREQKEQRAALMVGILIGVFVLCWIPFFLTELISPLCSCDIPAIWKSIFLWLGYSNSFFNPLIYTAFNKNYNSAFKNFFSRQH
T2 sequence (P41143 whole entry): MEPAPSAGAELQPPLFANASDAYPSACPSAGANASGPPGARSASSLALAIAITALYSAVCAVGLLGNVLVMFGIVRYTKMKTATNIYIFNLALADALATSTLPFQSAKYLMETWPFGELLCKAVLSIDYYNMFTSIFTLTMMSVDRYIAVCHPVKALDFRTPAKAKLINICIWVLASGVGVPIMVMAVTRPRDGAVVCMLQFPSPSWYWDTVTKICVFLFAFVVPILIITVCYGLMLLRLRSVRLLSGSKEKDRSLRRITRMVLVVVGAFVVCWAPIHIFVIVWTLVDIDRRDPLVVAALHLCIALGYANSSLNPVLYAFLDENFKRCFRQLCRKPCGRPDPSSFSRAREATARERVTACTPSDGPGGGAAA

Structure (SMILES) | hepatotoxicity 50% viability of HepG2 cells (HepG2 cells) [µM] | inhibition at 1 µM (H1) [%] | inhibition at 1 µM (δ (DOR)) [%] | inhibition at 1 µM (α1B) [%] | inhibition at 1 µM (5-HT1D) [%] | inhibition at 1 µM (5-HT2A) [%] | inhibition at 1 µM (NET) [%] | inhibition at 1 µM (5-HT2B) [%] | inhibition at 1 µM (H2) [%] | inhibition at 1 µM (κ (KOR)) [%] | inhibition at 0.01 µM (α2B) [%] | inhibition at 1 µM (α2B) [%] | inhibition at 1 µM (α2A) [%] | inhibition at 1 µM (D1) [%] | inhibition at 1 µM (CB2) [%] | % Inhibition of Control Specific Binding (BZD (peripheral)) [%] | inhibition at 1 µM (M3) [%] | inhibition at 1 µM (5-HT5A) [%] | inhibition at 1 µM (BZDp (TSPO)) [%] | inhibition at 1 µM (µ (MOR)) [%] | also measured
O=C(c1ccc(F)c(Cl)c1)N1CCC(F)(CNCCOc2ccccc2)CC1 [Compound 3] | >50 | -9 | 3 | 32 | 48 | 3 | -7 | 11 | -15 | 4 | -2 | 85 | 66 | 30 | 4 | -1.0 | 1 | -1 | -10 | 26 | inhibition at 0.1 µM (α2B): 45%; inhibition at 0.01 µM (α2A): -5%; inhibition at 0.1 µM (α2A): 21%; inhibition at 1 µM (β1): -8%
CNc1ccccc1OCCNCC1(F)CCN(C(=O)c2ccc(F)c(Cl)c2)CC1 [Compound 44, (3-Chloro-4-fluorophenyl)(4-fluoro-4-(((2-(2-(methylamino)phenoxy)ethyl)amino)methyl)piperidin-1-yl)methanone] | – | -5 | -5 | – | 38 | -2 | 0 | 23 | -28 | -2 | – | -2 | 10 | 36 | -5 | -5.0 | 9 | 2 | -10 | 22 | inhibition at 0.01 µM (α1B): -3%; inhibition at 0.1 µM (α1B): -6%; inhibition at 1 µM (β1): -5%
O=C(c1ccc(F)c(Cl)c1)N1CCC(F)(CNCCOc2cccc3[nH]ccc23)CC1 [Compound 56, (4-(((2-((1H-Indol-4-yl)oxy)ethyl)amino)methyl)-4-fluoropiperidin-1-yl)(3-chloro-4-fluorophenyl)methanone] | >50 | – | 0 | 69 | – | 10 | 5 | 48 | -33 | 6 | -8 | 75 | 81 | 89 | 1 | -1.0 | 1 | 53 | -6 | 88 | inhibition at 0.01 µM (α1B): -6%; inhibition at 0.1 µM (α1B): 11%; inhibition at 0.001 µM (5-HT1D; 1 nM): -14%; inhibition at 0.01 µM (5-HT1D; 10 nM): 27%; inhibition at 0.1 µM (5-HT1D; 100 nM): 80%; inhibition at 0.1 µM (α2B): 29%; inhibition at 0.01 µM (α2A): -7%; inhibition at 0.1 µM (α2A): 33%; inhibition at 0.01 µM (D1; 10 nM): 12%; inhibition at 0.1 µM (D1; 100 nM): 52%; inhibition at 0.01 µM (5-HT5A; 10 nM): -18%; inhibition at 0.1 µM (5-HT5A; 100 nM): 12%; inhibition at 0.01 µM (µ (MOR); 10 nM): 10%; inhibition at 0.1 µM (µ (MOR); 100 nM): 58%
